# Test results as given in paper PMC10709440, “High-throughput ligand profile characterization in novel cell lines expressing seven heterologous insect olfactory receptors for the detection of volatile plant biomarkers” (Scientific Reports, 2023).
# Tests used:
# [1] = target: T1, Drosophila OR49b (Drosophila melanogaster, UniProt Q9V6H2); assay: cell-based; design: GCaMP6 calcium fluorescence in stable HEK293 OR+ORCO lines; peak dF normalised to 50 uM VUAA1 (=1); conditions: HEK293; relative to 50 uM VUAA1 response; below 0.05 set to 0; read-out: % activation
# T1 construct: expressed in transfected cells
# T1 sequence (Q9V6H2 1-375): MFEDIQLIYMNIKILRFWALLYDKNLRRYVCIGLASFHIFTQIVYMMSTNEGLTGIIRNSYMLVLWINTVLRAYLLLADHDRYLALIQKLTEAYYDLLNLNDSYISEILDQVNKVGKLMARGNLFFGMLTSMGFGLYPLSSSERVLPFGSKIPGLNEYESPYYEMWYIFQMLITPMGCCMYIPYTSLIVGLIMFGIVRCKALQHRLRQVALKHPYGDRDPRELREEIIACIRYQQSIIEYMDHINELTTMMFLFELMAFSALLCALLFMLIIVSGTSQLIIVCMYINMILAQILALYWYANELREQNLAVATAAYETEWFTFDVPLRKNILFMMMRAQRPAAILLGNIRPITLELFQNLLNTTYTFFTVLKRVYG
# T1 sequence (Q9VNB5 1-486 partner): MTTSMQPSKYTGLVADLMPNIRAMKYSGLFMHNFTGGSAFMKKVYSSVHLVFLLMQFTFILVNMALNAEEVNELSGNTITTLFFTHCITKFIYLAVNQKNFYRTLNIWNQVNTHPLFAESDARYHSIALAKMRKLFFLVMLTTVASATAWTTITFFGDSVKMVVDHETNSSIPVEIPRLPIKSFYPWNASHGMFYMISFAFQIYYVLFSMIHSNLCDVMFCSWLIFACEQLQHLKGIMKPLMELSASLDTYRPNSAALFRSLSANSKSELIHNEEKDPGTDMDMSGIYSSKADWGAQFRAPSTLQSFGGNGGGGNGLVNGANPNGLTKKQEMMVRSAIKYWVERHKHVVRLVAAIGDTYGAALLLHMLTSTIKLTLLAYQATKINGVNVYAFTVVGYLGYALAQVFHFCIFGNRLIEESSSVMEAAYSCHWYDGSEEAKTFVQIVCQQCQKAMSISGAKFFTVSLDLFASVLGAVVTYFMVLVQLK
# Protocol: (§1) Twelve thousand to 18,000 cells were plated into each well of a black wall, transparent bottom 384-well microplate (Greiner) 48 h or 72 h before the measurements and were simultaneously treated with 1 μg/mL doxycycline. Typically, three columns were filled with one OR expressing cell line, each row was treated with the same compound (three technical replicates for each OR), and each responsive VOC-OR combination was measured at least three times on different days. The plate has 24 columns, thus we could record responses in up to eight different cell lines in each plate. On the day of the experiment, the growth medium was replaced with 20 µL assay buffer/well (140 mM NaCl, 5 mM KCl, 2 mM CaCl2, 1 mM MgCl2, 5 mM HEPES-Na, 20 mM glucose, pH 7.3, 340 mOsm). […] Baseline fluorescence (F0) was recorded for 5 s, after which 7 µL VOC buffer (140 mM NaCl, 5 mM KCl, 2 mM CaCl2, 1 mM MgCl2, 5 mM HEPES-Na, 31 mM glucose, 0.1% DMSO, pH 7.3, 340 mOsm) was injected into each well in one row and the fluorescence response was recorded for an additional 30 s, at a rate of one read/sec. VOC solutions (VOC buffer with 4× concentration of the final measured VOC concentration, 9 µL/well was injected) were measured on the same wells in a second round with the same protocol. Each individual concentration of a specific VOC sample was recorded in three wells for the same cell line on the same microplate. The raw data were exported in xls file format, F0 and FMAX values, and the fluorescence intensity changes (∆F) were calculated in Excel (Microsoft) (Supplementary file Data summary.xlsx) using the following equation: ΔF=FMAX-F0/F0 (see also Fig. 1C). On each plate, we recorded the response of each cell line to 50 µM VUAA1. The average of these ∆F values of each cell line were used to calculate the VUAA1-normalized values for the rest of the plate, by dividing VOC response ∆F values by the average VUAA1 response ∆F value of the corresponding OR cell line. Each VOC-OR combination was measured three times as tec The recorded FMAX, F0, ∆F, VUAA1-normalized ∆F values, as well as the OR name, the name of the tested sample, and the final concentration for each well were copied into supplementary file Data summary.xlsx, that was used to summarize all the plates recorded. Here, the averages of the measurements were calculated for each receptor-VOC-concentration combination. […] Each VOC was measured at 1, 10, and 100 µM final concentration on each receptor. VUAA1-normalized response was calculated as described in methods. Values are averages of at least three biological replicates for responsive combinations and two for the non-responsive combinations. The chemical structures of the strong and medium ligands are shown for each cell line. Heat map: white-green colors correspond to the lowest-highest values measured for each cell line.
# [2] = target: T2, Drosophila OR13a (Drosophila melanogaster, UniProt Q9VXL0); assay: cell-based; design: GCaMP6 calcium fluorescence in stable HEK293 OR+ORCO lines; peak dF normalised to 50 uM VUAA1 (=1); conditions: HEK293; relative to 50 uM VUAA1 response; below 0.05 set to 0; read-out: % activation
# T2 construct: expressed in transfected cells
# T2 sequence (Q9VXL0 1-418): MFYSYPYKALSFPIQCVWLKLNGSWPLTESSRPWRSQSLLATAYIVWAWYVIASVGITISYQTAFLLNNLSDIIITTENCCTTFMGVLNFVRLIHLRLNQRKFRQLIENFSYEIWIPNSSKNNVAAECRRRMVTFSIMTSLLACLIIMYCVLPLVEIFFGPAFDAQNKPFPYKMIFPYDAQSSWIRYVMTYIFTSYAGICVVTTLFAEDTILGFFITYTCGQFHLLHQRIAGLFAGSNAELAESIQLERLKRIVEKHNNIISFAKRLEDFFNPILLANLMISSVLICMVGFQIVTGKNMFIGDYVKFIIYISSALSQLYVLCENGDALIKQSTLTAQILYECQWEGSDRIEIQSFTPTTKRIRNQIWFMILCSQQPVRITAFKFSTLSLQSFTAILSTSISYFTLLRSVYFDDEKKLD
# T2 sequence (Q9VNB5 1-486 partner): T1 sequence (Q9VNB5 1-486 partner)
# Protocol: as §1
smiles,measurement,setting,value
CC/C=C/CCO [e3-hexenol],activity at 1 µM,[1],0%
same,activity at 10 µM,[1],0%
same,activity at 100 µM,[1],7.89%
same,activity at 1 µM,[2],0%
same,activity at 10 µM,[2],0%
same,activity at 100 µM,[2],7.11%
